Structures are written as SMILES. “Also recorded” adds a separate entry of the source.

T1 sequence (A0A2W1BYA3 entry or part of it): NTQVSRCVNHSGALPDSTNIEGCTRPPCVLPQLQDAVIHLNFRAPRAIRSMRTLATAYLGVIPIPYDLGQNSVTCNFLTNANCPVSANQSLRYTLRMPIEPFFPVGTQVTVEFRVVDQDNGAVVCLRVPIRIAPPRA

For the first assay, the target named is T1, HarmNPC2-1 (Helicoverpa armigera, UniProt A0A2W1BYA3). The assay can be described thus: Competitive binding experiments (displacement of 1-NPN). The note with it: competitive binding with 1-NPN, ligand 0.5–16 μM. The procedure:
(§1) Emission fluorescence spectra were recorded on a Horiba scientific Fluoromax-4 spectrofluorometer at room temperature in a right-angle configuration, with a 1 cm light path quartz cuvette and 5 nm slits for both excitation and emission. Proteins were dissolved in 50 mM Tris–HCl buffer, pH 7.4, while ligands were added as 1 mM methanol solutions.
The probe was excited at 337 nm and emission spectra were recorded between 380 and 450 nm. […] Data obtained with 1-NPN were analyzed with Prism software.
Take `Cc1cc2c(C(C)C)c(O)c(O)c(C=O)c2c(O)c1-c1c(C)cc2c(C(C)C)c(O)c(O)c(C=O)c2c1O` [gossypol]: the “binding / affinity for HarmNPC2-1 (in words)” value was “best ligand; also recorded: the best”. On the same count and under the same terms, the entry for `COc1cc(CNC(=O)CCCC/C=C/C(C)C)ccc1O` [capsaicin] is “failed to bind”. Regarding `COc1cc(C=O)ccc1O` [vanillin], the “binding / affinity for HarmNPC2-1 (in words)” value was “failed to bind”. On the same count and under the same terms, under `COc1ccc([C@@H]2CC(=O)c3c(O)cc(O[C@@H]4O[C@H](CO[C@@H]5O[C@@H](C)[C@H](O)[C@@H](O)[C@H]5O)[C@@H](O)[C@H](O)[C@H]4O)cc3O2)cc1O` [hesperidin] stands “the worst”; under `O=C/C=C/c1ccccc1` [cinnamaldehyde], “failed to bind”. Still for that read-out and setting: under `C=CCc1ccc(O)c(OC)c1` [eugenol] stands “failed to bind”; under `OCc1ccc2c(c1)OCO2` [piperonyl alcohol], “failed to bind”; under `COc1cc(/C=C/C=O)ccc1O` [coniferyl aldehyde], “moderate binding”.

The assay is the same for the next values; noted with them: concentrations up to 16 μM; protein and 1-NPN both 2 μM.
On to `CCCCCCCC(=O)O` [octanoic acid], for which the “displacing the fluorescent probe from the complex” value (“displacing the fluorescent probe” for short) is reported as “ineffective”. Same read-out and setting: under `CCCCC(C)O` (centres unmarked) [2-hexanol] stands “ineffective”. On the same count and under the same terms, under `COc1cc(CNC(=O)CCCC/C=C/C(C)C)ccc1O` [capsaicin] stands “ineffective”.

As to `C[C@]12CC[C@@H]3c4ccc(O)cc4CC[C@H]3[C@@H]1CC[C@@H]2O` [β-estradiol], the “displacing the fluorescent probe” value was “ineffective”.

Consider `C=CC(O)CCCCC` (centres unmarked) [1-octen-3-ol], for which the “displacing the fluorescent probe” value is recorded as “ineffective”. The same measure, in the same setting: the entry for `COc1cc(C=O)ccc1O` [vanillin] is “ineffective”; for `CCCCCCCCCC=O` [decanal] it is “ineffective”. Same read-out and setting: under `CCCC(O)CC` (centres unmarked) [3-hexanol] stands “ineffective”. The same measure, in the same setting: the entry for `CC/C=C\CC1C(=O)CCC1CC(=O)OC` (centres unmarked) [methyl jasmonate] is “ineffective”; for `CC1=C(C=O)C(C)(C)CC=C1` [safranal] it is “ineffective”; for `O=CCc1ccccc1` [2-phenylacetaldehyde] it is “ineffective”. For `COc1ccc(C=O)cc1` [4-methoxy benzaldehyde], the “displacing the fluorescent probe” value is on record as “ineffective”. On the same count and under the same terms, under `CCCCCCCCCC(=O)O` [decanoic acid] stands “ineffective”. `Cc1ccc(C=O)cc1` [4-methyl benzaldehyde]: the “displacing the fluorescent probe” value is given as “ineffective”. Same read-out and setting: under `C=C(C)C1CC=C(C)C(=O)C1` (centres unmarked) [carvone] stands “ineffective”; under `O=Cc1ccccc1O` [2-hydroxy benzaldehyde], “ineffective”; under `CCCC/C=C\CCCCCCCCCC=O` [(Z)-11-hexadecenal], “ineffective”. The same measure, in the same setting: under `COC(=O)CC(C)CCC=C(C)C` (centres unmarked) [citronellic acid methyl ester] stands “ineffective”; under `CC(C)=CCC[C@@H](C)CC=O` (racemic) [citronellal], “ineffective”. Still for that read-out and setting: under `CC/C=C\CCO` [Z3-hexen-1-ol] stands “ineffective”; under `CC(=O)/C=C/C1=C(C)CCCC1(C)C` [β-ionone], “ineffective”.

In the case of `CC(C)=CCC/C(C)=C/CC/C(C)=C/CO` [farnesol], the “displacing the fluorescent probe” value is reported as “ineffective”. The same measure, in the same setting: under `COC(=O)C=Cc1ccccc1` [methyl cinnamate] stands “ineffective”; under `O=C/C=C/c1ccccc1` [cinnamaldehyde], “ineffective”; under `CCCCCC/C=C\CCCCCCCC=O` [(Z)-9-hexadecenal], “ineffective”. On the same count and under the same terms, the entry for `C=CCc1ccc(O)c(OC)c1` [eugenol] is “ineffective”; for `O=Cc1ccccc1` [benzaldehyde] it is “ineffective”. The same measure, in the same setting: the entry for `CCCCCCCC=O` [octanal] is “ineffective”; for `OCc1ccc2c(c1)OCO2` [piperonyl alcohol] it is “ineffective”. As to `CCCC/C=C\CCCCCCCCCCO` [(Z)-11-hexadecenol], the “displacing the fluorescent probe” value is reported as “ineffective”. In the case of `CCCC=CC=CC=O` [2,4-octadienal], the “displacing the fluorescent probe” value is listed as “ineffective”. On the same count and under the same terms, the entry for `c1ccc2[nH]ccc2c1` [indole] is “ineffective”; for `CCCC/C=C\CCCCCCCCCCOC(C)=O` [(Z)-11-hexadecenyl acetate] it is “ineffective”; for `CCCCCCCO` [1-heptanol] it is “ineffective”.

Another assay has as its target T1, HarmNPC2-1. The assay can be described thus: Quenching of intrinsic tryptophan fluorescence. The class given is binding. To be noted: Figure 2C. The procedure:
as §1
As to `Cc1cc2c(C(C)C)c(O)c(O)c(C=O)c2c(O)c1-c1c(C)cc2c(C(C)C)c(O)c(O)c(C=O)c2c1O` [gossypol], the “quenching of intrinsic tryptophan fluorescence” value is reported as “quenching of intrinsic tryptophan fluorescence in a dose-dependent fashion”. Still for that read-out and setting: under `O=c1c(O)c(-c2ccc(O)c(O)c2)oc2cc(O)cc(O)c12` [quercetin] stands “quenching of intrinsic tryptophan fluorescence in a dose-dependent fashion”.

(Values after PMC5810286, “Niemann-Pick C2 Proteins: A New Function for an Old Family” (Frontiers in Physiology, 2018).)
